Test results from PMC4263427 (Biochemistry, 2014).

Molecular target: T1, class II fructose 1,6-bisphosphate aldolase (SaFBA) (Staphylococcus aureus, UniProt Q5HE75)
T1 sequence (Q5HE75 1-286): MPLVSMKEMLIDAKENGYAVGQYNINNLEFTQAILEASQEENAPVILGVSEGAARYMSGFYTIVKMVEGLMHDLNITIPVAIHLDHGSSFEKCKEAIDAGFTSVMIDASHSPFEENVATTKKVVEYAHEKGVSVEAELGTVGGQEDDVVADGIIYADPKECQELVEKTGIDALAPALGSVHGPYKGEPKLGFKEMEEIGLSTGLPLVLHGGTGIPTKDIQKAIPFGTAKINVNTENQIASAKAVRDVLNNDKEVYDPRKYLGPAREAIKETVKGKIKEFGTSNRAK
Assay: coupled fluorescence
Format: biochemical

O=C(O)c1ccc2cccc(O)c2n1 [HCA, 8-hydroxyquinoline-2-carboxylic acid]
Ki: 96 ± 22 µM
